# Key:
# Assay in all cases: MIC by agar dilution method
# Format in all cases: cell-based
# [1] = test system: Enterococcus faecalis ATCC 29212
# Source text: (§1) The minimum inhibitory concentration (MIC) against different test strains, determined by agar dilution method in the known manner, are given in Table 2.
# S. aureus Chantot 31153 = test system: S. aureus Chantot 31153
# Source text: as §1
# S. aureus 20424 = test system: S. aureus 20424
# Source text: as §1
# S. aureus 20240 = test system: S. aureus 20240
# Source text: as §1
# S. aureus 3066 = S. aureus 3066 (resistant to methicillin)
# Source text: as §1
# S. aureus E 710 = test system: S. aureus E 710
# Source text: as §1
# [2] = test system: Ent. faecium R-1 (V^R,T^R); settings: Vancomycin resistant, Teicoplanin resistant
# Source text: as §1
# S. aureus Brussels 810 = test system: S. aureus Brussels 810
# Source text: as §1
# S. aureus Wein 11 = test system: S. aureus Wein 11
# Source text: as §1
# Ent. faecalis 4045H = test system: Ent. faecalis 4045H
# Source text: as §1
# S. epi. 823 (T^R) = settings: Teicoplanin resistant
# Source text: as §1
# Ent. faecium D-65 = test system: Ent. faecium D-65
# Source text: as §1
# [3] = test system: Ent. faecium P-1 (V^R,T^R); settings: Vancomycin resistant, Teicoplanin resistant
# Source text: as §1
# Ent. faecalis D-7F = test system: Ent. faecalis D-7F
# Source text: as §1
# S. haemo. 712 (T^S) = settings: Teicoplanin sensitive
# Source text: as §1
# S. epi. 825 (T^S) = settings: Teicoplanin sensitive
# Source text: as §1
# Ent. equinus (V^R,T^R) = settings: Vancomycin resistant, Teicoplanin resistant
# Source text: as §1
# Ent. hirae 55 = test system: Ent. hirae 55
# Source text: as §1
# S. aureus Wein 12 = test system: S. aureus Wein 12
# Source text: as §1
# [4] = test system: Ent faecalis durans 4931 H
# Source text: as §1
# S. aureus Brussels 4115 = test system: S. aureus Brussels 4115
# Source text: as §1
# S. epi. 8 Schah = test system: S. epi. 8 Schah
# Source text: as §1
# S. epi. 5747 IIW = test system: S. epi. 5747 IIW
# Source text: as §1
# S. aureus E 712 = test system: S. aureus E 712
# Source text: as §1
# S. aureus E-88 = test system: S. aureus E-88
# Source text: as §1
# [5] = test system: Staphylococcus aureus 209P
# Source text: as §1
# [6] = test system: Ent. faecium P-2 (V^R,T^R); settings: Vancomycin resistant, Teicoplanin resistant
# Source text: as §1
# S. epi. 32965 = test system: S. epi. 32965
# Source text: as §1
# S. epi 6026 = test system: S. epi 6026
# Source text: as §1
# Escherichia coli 2231 = test system: Escherichia coli 2231
# Source text: as §1
# S. haemo. 712 (T^R) = settings: Teicoplanin resistant
# Source text: as §1
# S. epi. 109 = test system: S. epi. 109
# Source text: as §1
# [7] = test system: Ent. faecium R-2 (V^R,T^R); settings: Vancomycin resistant, Teicoplanin resistant
# Source text: as §1
substance,measurement,setting,value
methylsulfomycin I,MIC,[1],0.125 µg/mL
same,MIC,S. aureus Chantot 31153,0.125 µg/mL
same,MIC,S. aureus 20424,0.125 µg/mL
same,MIC,S. aureus 20240,0.125 µg/mL
same,MIC,S. aureus 3066,0.125 µg/mL
same,MIC,S. aureus E 710,0.125 µg/mL
same,MIC,[2],0.125 µg/mL
same,MIC,S. aureus Brussels 810,0.125 µg/mL
same,MIC,S. aureus Wein 11,0.125 µg/mL
same,MIC,Ent. faecalis 4045H,0.125 µg/mL
same,MIC,S. epi. 823 (T^R),0.125 µg/mL
same,MIC,Ent. faecium D-65,0.125 µg/mL
same,MIC,[3],0.125 µg/mL
same,MIC,Ent. faecalis D-7F,0.125 µg/mL
same,MIC,S. haemo. 712 (T^S),0.125 µg/mL
same,MIC,S. epi. 825 (T^S),0.125 µg/mL
same,MIC,"Ent. equinus (V^R,T^R)",0.125 µg/mL
same,MIC,Ent. hirae 55,0.125 µg/mL
same,MIC,S. aureus Wein 12,0.125 µg/mL
same,MIC,[4],0.125 µg/mL
same,MIC,S. aureus Brussels 4115,0.125 µg/mL
same,MIC,S. epi. 8 Schah,0.125 µg/mL
same,MIC,S. epi. 5747 IIW,0.125 µg/mL
same,MIC,S. aureus E 712,0.125 µg/mL
same,MIC,S. aureus E-88,0.125 µg/mL
same,MIC,[5],0.06 µg/mL
same,MIC,[6],0.125 µg/mL
same,MIC,S. epi. 32965,0.125 µg/mL
same,MIC,S. epi 6026,0.125 µg/mL
same,MIC,Escherichia coli 2231,> 100 µg/mL
same,MIC,S. haemo. 712 (T^R),0.125 µg/mL
same,MIC,S. epi. 109,0.125 µg/mL
same,MIC,[7],0.125 µg/mL

# Reference: EP0818464B1, “Methylsulfomycin l, a process for its production and its use” (HOECHST AKTIENGESELLSCHAFT, priority 1996, dated 1998)
